# Experimental data from ChEMBL document CHEMBL4680160, “A perspective review on fatty acid amide hydrolase (FAAH) inhibitors as potential therapeutic agents” (Eur J Med Chem, 2020).
# Target: T1, Fatty-acid amide hydrolase 1 (Rattus norvegicus, UniProt P97612)
# T1 sequence (P97612 whole entry): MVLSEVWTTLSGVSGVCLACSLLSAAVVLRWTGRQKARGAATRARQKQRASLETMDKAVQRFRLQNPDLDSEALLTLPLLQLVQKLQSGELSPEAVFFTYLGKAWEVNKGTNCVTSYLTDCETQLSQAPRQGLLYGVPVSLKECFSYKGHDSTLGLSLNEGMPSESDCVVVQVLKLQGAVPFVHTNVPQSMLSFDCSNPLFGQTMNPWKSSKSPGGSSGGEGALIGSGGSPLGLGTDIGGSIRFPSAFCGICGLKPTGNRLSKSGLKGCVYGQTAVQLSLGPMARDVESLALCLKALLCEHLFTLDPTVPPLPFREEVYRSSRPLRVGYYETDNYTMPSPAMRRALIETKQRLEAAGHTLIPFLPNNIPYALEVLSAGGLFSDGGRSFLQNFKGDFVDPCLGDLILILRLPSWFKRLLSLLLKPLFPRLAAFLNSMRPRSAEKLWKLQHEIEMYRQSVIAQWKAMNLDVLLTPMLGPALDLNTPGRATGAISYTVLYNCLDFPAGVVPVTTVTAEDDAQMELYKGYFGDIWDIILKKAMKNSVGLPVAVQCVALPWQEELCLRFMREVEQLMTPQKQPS
# Experiment: Inhibition of FAAH in rat brain homogenate using 2-arachidonoyl-[3H]-glycerol as substrate by scintillation counting method
# Format: tissue-based
row,Compound,IC50 [µM]
1,O=C(N1CCC(NCc2nc3cc(F)ccc3n3cccc23)CC1)n1nnc2ccccc21,0.0096
2,Cc1ccc2c(nc(CNC3CCN(C(=O)n4nnc5ccccc54)CC3)c3cccn32)c1C,0.0251
3,O=C(N1CCN(Cc2nc3ccccc3n3cccc23)CC1)n1nnc2ccccc21,0.0236

# Second part, the compound after the results:
row,IC50 [µM],Compound
1,0.037,O=C(N1CCN(Cc2nc3ccccc3n3cccc23)CC1)n1cncn1
2,0.0232,O=C(N1CCN(Cc2nc3cc(F)ccc3n3cccc23)CC1)n1nnc2ccccc21
3,0.0358,O=C(N1CCN(Cc2nc3cc(Cl)ccc3n3cccc23)CC1)n1nnc2ccccc21
4,0.0324,Cc1ccc2c(nc(CN3CCN(C(=O)n4cncn4)CC3)c3cccn32)c1C
5,0.0273,Cc1ccc2c(nc(CN3CCN(C(=O)n4nnc5ccccc54)CC3)c3cccn32)c1C
6,0.0207,O=C(N1CCN(Cc2nc3cc(F)ccc3n3cccc23)CC1)n1cncn1
7,0.0251,O=C(N1CCN(Cc2nc3cc(Cl)ccc3n3cccc23)CC1)n1cncn1

# Target: T1, Fatty-acid amide hydrolase 1
# Experiment: Inhibition of rat FAAH using [3H]-AEA as substrate by liquid chromatography-mass spectrometry
row,IC50 [µM],Compound
1,0.025,CCCCCCNC(=O)n1cc(OC(C)=O)c(=O)[nH]c1=O
2,0.492,CCCCCCNC(=O)n1ccc(=O)[nH]c1=O
3,0.025,CCCCCCNC(=O)n1cc(F)c(=O)[nH]c1=O [CARMOFUR]
4,0.025,CCCCCCNC(=O)n1cc(C#N)c(=O)[nH]c1=O
5,0.003,CC(=O)Oc1cn(C(=O)NCCCCCCCc2ccccc2)c(=O)[nH]c1=O
6,0.0003,CC(=O)Oc1cn(C(=O)NCCCc2ccc(-c3ccccc3)cc2)c(=O)[nH]c1=O
7,0.0008,CC(=O)Oc1cn(C(=O)NCCCCc2ccc(-c3ccccc3)cc2)c(=O)[nH]c1=O

# Species on record: Rattus norvegicus
# Experiment: Selectivity ratio of IC50 for rat NAAA using d4-PEA as substrate to IC50 for rat FAAH using [3H]-AEA as substrate
row,Ratio IC50,Compound
1,2,CCCCCCNC(=O)n1ccc(=O)[nH]c1=O
2,3130,CC(=O)Oc1cn(C(=O)NCCCCCCCc2ccccc2)c(=O)[nH]c1=O
3,> 10000,CC(=O)Oc1cn(C(=O)NCCCc2ccc(-c3ccccc3)cc2)c(=O)[nH]c1=O
4,> 10000,CC(=O)Oc1cn(C(=O)NCCCCc2ccc(-c3ccccc3)cc2)c(=O)[nH]c1=O

# Target: T1, Fatty-acid amide hydrolase 1
# Experiment: Inhibition of FAAH in rat brain microsomes using N-(2-hydroxyethyl)-4-pyren-1-ylbutanamide as substrate incubated for 45 mins by reverse-phase HPLC-based fluorescence assay
row,IC50 [µM],Compound
1,0.55,O=C(COc1ccc(Oc2ccccc2)cc1)Cn1ncc2cc([N+](=O)[O-])ccc21
2,5.3,N#CNC(COc1ccc(Oc2ccccc2)cc1)Cn1ncnn1 (configuration not stated)
3,6,O=C(COc1ccc(Oc2ccccc2)cc1)Cn1ncc2cc(NC(=O)Nc3ccccc3)ccc21
4,0.055,O=C(COc1ccc(Oc2ccccc2)cc1)Cn1ncc2cc(C(=O)O)ccc21
5,0.008,O=C(COc1ccc(Oc2ccccc2)cc1)Cn1ncnn1
6,0.77,CS(=O)(=O)NC(=O)c1ccc2c(cnn2CC(=O)COc2ccc(Oc3ccccc3)cc2)c1
7,10,O=C(Cn1nnc2ccccc21)c1nc2cc(Oc3ccccc3)ccc2o1
8,0.51,O=C(COc1ccc(Oc2ccccc2)cc1)Cn1ncc2cc(C(=O)NS(=O)(=O)C(F)(F)F)ccc21
9,2.1,O=C(COc1ccc(Oc2ccccc2)cc1)Cn1ncc2cc(NC(=O)Oc3ccccc3)ccc21
10,4,COC(=O)Nc1ccc2c(cnn2CC(=O)COc2ccc(Oc3ccccc3)cc2)c1
11,2.6,O=C(COc1ccc(Oc2ccccc2)cc1)Cn1ncc2ccccc21
12,1.6,CCNC(=O)Nc1ccc2c(cnn2CC(=O)COc2ccc(Oc3ccccc3)cc2)c1
13,0.84,O=C(COc1ccc(Oc2ccccc2)cc1)Cn1ncc2cc(NC(=O)NC3CCCCC3)ccc21
14,3.9,CC(=O)Nc1ccc2c(cnn2CC(=O)COc2ccc(Oc3ccccc3)cc2)c1
15,6.3,COCC(=O)Nc1ccc2c(cnn2CC(=O)COc2ccc(Oc3ccccc3)cc2)c1
16,4.7,O=C(COc1ccc(Oc2ccccc2)cc1)Cn1ncc2cc(C(=O)NS(=O)(=O)c3ccccc3)ccc21
17,5.4,O=C(COc1ccc(Oc2ccccc2)cc1)Cn1ncc2cc(NC(=O)CO)ccc21

# Target: T1, Fatty-acid amide hydrolase 1
# Experiment: Inhibition of FAAH in rat brain homogenate using [3H]AEA as substrate
# Format: tissue-based
row,IC50 [µM],Compound
1,0.62,O=C(COc1ccc(-c2ccccc2)cc1)Nc1ccc(-c2nc3ncccc3[nH]2)cc1
2,1.1,O=C(COc1ccc(-c2ccccc2)cc1)Nc1ccccc1-c1nc2ncccc2[nH]1
3,2.1,CC(C)c1ccc(OCC(=O)Nc2cccc(-c3nc4ncccc4o3)c2)cc1
4,0.65,O=C(COc1ccc(C2CCCCC2)cc1)Nc1ccccc1-c1nc2ncccc2[nH]1
5,5.5,CCC/C=C/COCC(=O)Nc1ccccc1-c1nc2ncccc2[nH]1
6,13,O=C(COc1ccc(-c2ccccc2)cc1)Nc1cccc(-c2nc3cccnc3[nH]2)c1
7,1.5,O=C(COc1ccc(C2CCCCC2)cc1)Nc1ccc(-c2nc3ncccc3[nH]2)cc1
8,17,CCC/C=C/COCC(=O)Nc1cccc(-c2nc3ncccc3o2)c1
9,73,CCC/C=C/COCC(=O)Nc1cccc(-c2nc3cccnc3[nH]2)c1
10,64,CCCC/C=C/COCC(=O)Nc1ccc(-c2nc3ncccc3[nH]2)cc1
11,18,O=C(COc1ccccc1)Nc1cccc(-c2nc3ncccc3o2)c1
12,47,O=C(COc1ccc(C2CCCCC2)cc1)Nc1cccc(-c2nc3ncccc3[nH]2)c1
13,0.35,O=C(COc1ccc(-c2ccccc2)cc1)Nc1ccc(-c2nc3ncccc3o2)cc1
14,2.6,O=C(COc1ccc(C2CCCCC2)cc1)Nc1cccc(-c2nc3ncccc3o2)c1
15,0.63,O=C(COc1ccc(-c2ccccc2)cc1)Nc1cccc(-c2nc3ncccc3o2)c1

# Target: T1, Fatty-acid amide hydrolase 1
# Experiment: Inhibition of FAAH in rat brain homogenate using [3H]AEA as substrate incubated for 10 mins by liquid scintillation spectroscopy
# Format: tissue-based
row,IC50 [µM],Compound
1,43,COc1ccc(CNC(=O)C(C)c2ccc(CC(C)C)cc2)cc1 (configuration not stated)
2,25,CC(C)Cc1ccc(C(C)C(=O)NCc2ccc(C(C)(C)C)cc2)cc1 (configuration not stated)
3,27,CC(C)Cc1ccc(C(C)C(=O)NCc2ccc(F)cc2)cc1 (configuration not stated)
4,18,COc1ccc(CNC(=O)C(C)c2ccc(CC(C)C)cc2)cc1O (configuration not stated)
5,27,CC(C)Cc1ccc(C(C)C(=O)NCc2ccc(Cl)cc2)cc1 (configuration not stated)
6,51,CC(C)Cc1ccc(C(C)C(=O)NCc2ccc(C(F)(F)F)cc2)cc1 (configuration not stated)
7,16,CC(C)Cc1ccc(C(C)C(=O)N2CCN(c3ccc(Cl)c(Cl)c3)CC2)cc1 (configuration not stated)
8,1.7,CC(C)Cc1ccc(C(C)C(=O)N2CCN(c3cccc(Cl)c3)CC2)cc1 (configuration not stated)
9,4.5,COc1ccc(N2CCN(C(=O)C(C)c3ccc(CC(C)C)cc3)CC2)cc1 (configuration not stated)
10,36,CC(C)Cc1ccc(C(C)C(=O)NCc2ccc(Cl)c(Cl)c2)cc1 (configuration not stated)
11,4.7,CC(C)Cc1ccc(C(C)C(=O)N2CCN(c3ccccc3)CC2)cc1 (configuration not stated)
12,28,CC(C)Cc1ccc(C(C)C(=O)NCc2cccc(C(F)(F)F)c2)cc1 (configuration not stated)
13,1.7,Cc1cccc(N2CCN(C(=O)C(C)c3ccc(CC(C)C)cc3)CC2)c1C (configuration not stated)
14,18,COc1ccccc1CNC(=O)C(C)c1ccc(CC(C)C)cc1 (configuration not stated)
15,21,CC(C)Cc1ccc(C(C)C(=O)NCc2ccccc2)cc1 (configuration not stated)
16,16,Cc1cccc(N2CCN(C(=O)C(C)c3ccc(CC(C)C)cc3)CC2)c1 (configuration not stated)
17,1.7,CC(C)Cc1ccc(C(C)C(=O)N2CCN(c3ccc(Cl)cc3)CC2)cc1 (configuration not stated)

# System: not listed separately
# Experiment: In vivo inhibition of FAAH in NMRI mouse assessed as remaining enzymatic activity in brain at 30 mg/kg, po measured after 1 hr by AEA-substrate based scintillation counting method relative to control
# Format: functional
row,Compound,Activity [%]
1,Cl.Cl.O=c1oc(Oc2ccc(F)cc2F)nn1-c1ccc(OCCN2CCNCC2)cc1,74
2,Cl.O=c1oc(Oc2ccc(F)cc2F)nn1-c1ccc(OCCN2CCCCC2)cc1,20
3,O=c1oc(Oc2ccc(F)cc2F)nn1-c1cccc(O)c1,94
4,Cl.Cl.O=c1oc(Oc2ccc(F)cc2F)nn1-c1ccc(OCCCN2CCNCC2)cc1,85
5,Cl.O=c1oc(Oc2ccc(F)cc2F)nn1-c1ccc(OCCN2CCCC2)cc1,10
6,O=c1oc(Oc2ccc(F)cc2F)nn1-c1ccc(O)cc1,86

# System: not listed separately
# Experiment: In vivo inhibition of FAAH in NMRI mouse assessed as remaining enzymatic activity in liver at 30 mg/kg, po measured after 1 hr by AEA-substrate based scintillation counting method relative to control
# Format: functional
row,Compound,Activity [%]
1,Cl.Cl.O=c1oc(Oc2ccc(F)cc2F)nn1-c1ccc(OCCN2CCNCC2)cc1,5
2,Cl.O=c1oc(Oc2ccc(F)cc2F)nn1-c1ccc(OCCN2CCCCC2)cc1,10
3,O=c1oc(Oc2ccc(F)cc2F)nn1-c1cccc(O)c1,12
4,Cl.Cl.O=c1oc(Oc2ccc(F)cc2F)nn1-c1ccc(OCCCN2CCNCC2)cc1,8
5,Cl.O=c1oc(Oc2ccc(F)cc2F)nn1-c1ccc(OCCN2CCCC2)cc1,9
6,O=c1oc(Oc2ccc(F)cc2F)nn1-c1ccc(O)cc1,12
